Active and inactive are the calls of the source.
How the values were obtained:
[1] = molecular target: Luciferin 4-monooxygenase (Photinus pyralis, UniProt P08659); assay: inhibition of purified Photinus pyralis luciferase – biochemical, luminescence, dose response (AID 1891)
[2] = Luminescence Cell-Based Dose Confirmation HTS to Identify Inhibitors of Platelet Dense Granule Release. [Related pubchem assays: 1663 (Primary HTS), 1678 (Summary of Project)]; assay type: functional
[3] = molecular target: T1, Mannose-6-phosphate isomerase (Homo sapiens, UniProt P34949); assay: MPI inhibition at elevated mannose 6-phosphate – biochemical, fluorescence intensity, high mannose 6-phosphate, primary screen (AID 1220)
T1 sequence (P34949 whole entry): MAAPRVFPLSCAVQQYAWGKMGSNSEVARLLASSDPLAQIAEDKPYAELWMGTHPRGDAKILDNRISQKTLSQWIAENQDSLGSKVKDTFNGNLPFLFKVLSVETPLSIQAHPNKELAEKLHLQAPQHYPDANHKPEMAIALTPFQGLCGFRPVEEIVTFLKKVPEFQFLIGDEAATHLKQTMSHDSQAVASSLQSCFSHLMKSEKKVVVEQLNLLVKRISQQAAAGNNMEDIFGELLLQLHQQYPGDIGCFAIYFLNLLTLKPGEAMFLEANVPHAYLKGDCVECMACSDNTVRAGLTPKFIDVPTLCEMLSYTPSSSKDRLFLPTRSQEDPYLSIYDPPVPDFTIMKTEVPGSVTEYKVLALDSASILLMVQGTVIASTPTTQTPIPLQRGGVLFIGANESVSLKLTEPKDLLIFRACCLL

[4] = molecular target: Long-chain-fatty-acid--AMP ligase FadD28 (Mycobacterium tuberculosis, UniProt P9WQ59); assay: Fluorescence polarization aasay to screen for inhibitors that compete for the binding of FadD28 to a bisubstrate Measured in Biochemical System Using Plate Reader - 2147-01_Inhibitor_Dose_CherryPick_Activity.; assay type: functional, Mycobacterium tuberculosis H37Rv
[5] = molecular target: T2, Oxysterols receptor LXR-beta (Homo sapiens, UniProt P55055); assay type: functional, cell-based;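 also: Cell-based luminescence dose-response assay of agonist activity at LXR, run as a confirmatory counterscreen to a daf-12 agonist screen; HEK293 cells with Gal4-LXR fusion and GAL4-driven luciferase reporter; agonist potency from rising luciferase signal of a Gal4-LXR reporter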
T2 sequence (P55055 whole entry): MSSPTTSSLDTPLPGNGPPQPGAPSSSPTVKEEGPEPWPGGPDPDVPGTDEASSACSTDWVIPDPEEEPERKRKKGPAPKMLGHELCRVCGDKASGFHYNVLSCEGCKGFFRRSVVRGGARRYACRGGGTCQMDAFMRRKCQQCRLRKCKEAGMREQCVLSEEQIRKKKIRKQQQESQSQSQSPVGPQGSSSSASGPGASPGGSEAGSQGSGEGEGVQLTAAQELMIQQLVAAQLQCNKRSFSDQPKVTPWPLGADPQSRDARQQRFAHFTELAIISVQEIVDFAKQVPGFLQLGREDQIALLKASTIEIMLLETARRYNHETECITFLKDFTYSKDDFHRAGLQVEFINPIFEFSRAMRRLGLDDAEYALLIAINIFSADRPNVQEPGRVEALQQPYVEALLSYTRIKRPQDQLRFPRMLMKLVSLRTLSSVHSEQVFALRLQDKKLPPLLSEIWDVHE

[6] = cells
[7] = molecular target: Paired box protein Pax-8 (Homo sapiens, UniProt Q06710); assay: PAX8 transcriptional activity inhibition in RMG-I – RMG-I cells, luciferase, cherry-pick, dose response (AID 687027); assay type: functional, cell-based;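 also: luciferase reporter driven by Pax8 target thyroperoxidase promoter measured by SteadyGlo luminescence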
[8] = HIV-1 AD8 envelope cell-cell fusion blockers – cherry-pick, dose response (AID 652062); assay type: functional, cell-based;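 also: luciferase signal from cell-cell fusion driven by HIV-1 clade B AD8 Env; potency is for inhibitors of fusion seen as a drop in luminescence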
[9] = toxicity toward immortalized ovarian surface epithelium – cell-based, plate reader, dry powder samples, cytotoxicity control for PAX8 inhibitor project, dose response (AID 743045); assay type: functional
[10] = reduced cellular PGC1a acetyl-lysine signal – cell-based, cherry-picked samples, dose response (AID 720514); assay type: functional;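 also: potency may reflect raised or lowered acetylation signal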
[11] = OVCAR-3 cell viability loss – plate reader, dry powder samples, PAX8 inhibitor project, dose response (AID 743044); assay type: functional, cell-based
[12] = A549 cell cytotoxicity, dose response, cytotoxicity control, plate reader, cherry-pick, antagonist series (AID 743412); assay type: functional, cell-based
[13] = IGROV1 cell killing – plate reader, dry powder samples, PAX8 inhibitor project, dose response (AID 743043); assay type: functional, cell-based; conditions: IGROV-1
[14] = blockers of bursicon-stimulated LGR2 cAMP reporter – cell-based, HEK293, CRE-luciferase reporter, cherry pick, set 2, dose response (AID 743343); assay type: functional;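 also: transfected cells were stimulated with diluted bursicon conditioned medium after compound addition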
[15] = general cell-killing toxicity readout – plate reader, dry powder samples, cytotoxicity control for PAX8 inhibitor project, dose response (AID 743021); assay type: functional, cell-based
[16] = blockade of melanocortin 4 receptor signaling – cell-based, plate reader, cherry pick, counter-screen for LGR2 antagonist project, dose response (AID 743444); assay type: functional;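 also: transfected HEK 293 cells stimulated with alpha-MSH peptide; potency of inhibitors of the alpha-MSH evoked signal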
[17] = OVCAR8 cell viability loss – plate reader, dry powder samples, PAX8 project, dose response (AID 743197); assay type: functional, cell-based; conditions: OVCAR-8
[18] = viability loss in HEK293 cells – cell-based, plate reader, cherry-picked samples, cytotoxicity control, dose response (AID 743446); assay type: functional
[19] = toxicity toward HepG2 liver cells – cell-based, plate reader, cherry-pick, antagonist series, cytotoxicity control, dose response (AID 743416); assay type: functional
[20] = growth inhibition of yeast DHODH-expressing 3D7 parasites – SYBR Green, dry powder samples, dose response (AID 1159570); assay type: functional, cell-based;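 also: parasite growth measured after 72 hours of compound exposure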
[21] = toxicity to human HepG2 hepatoma cells – cell-based, plate reader, dry powder samples, cytotoxicity control, dose response (AID 1159569); assay type: functional;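 also: inhibitor potency with signal falling toward the positive control level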
[22] = P. falciparum Dd2 growth inhibitors, dose response, SYBR Green, cherry-picked samples (AID 1159567); assay type: functional, cell-based
[23] = Dd2 malaria parasite growth inhibition potency – SYBR Green, dry powder samples, dose response (AID 1159566); assay type: functional, cell-based;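 also: potency for growth inhibition with lower SYBR green DNA signal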
[24] = toxicity to human hepatoma HepG2 cells – cell-based, cherry-picked samples, cytotoxicity control, dose response (AID 1159577); assay type: functional
[25] = growth inhibition of PfATP4-mutant resistant parasites – NITD609-resistant line, SYBR Green, dry powder, dose response (AID 1159571); assay type: functional, cell-based;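 also: parasites synchronized at ring stage by sorbitol before testing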
[26] = A2780 cell killing – plate reader, dry powder samples, cytotoxicity control, dose response (AID 743046); assay type: functional, cell-based
[27] = rise of 2N DNA cells, HeLa – IC50, dose response (AID 1117349); assay type: functional, cell-based
[28] = rise of 4N DNA cells, HeLa – IC50, dose response (AID 1117351); assay type: functional, cell-based
[29] = M. tuberculosis H37Rv growth inhibitors, H37Rv strain (AID 1626); assay type: functional
[30] = molecular target: RNA-editing ligase 1, mitochondrial (Trypanosoma brucei brucei, UniProt P86926); assay: inhibition of trypanosome RNA editing ligase – biochemical, fluorescence, Trypanosoma brucei, dose response (AID 1117295); assay type: functional
[31] = molecular target: Cytochrome P450 2D6 (Homo sapiens, UniProt P10635);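 also: CYP2D6 member of a cytochrome P450 panel assay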
Chain of Cytochrome P450 2D6 (P10635 whole entry): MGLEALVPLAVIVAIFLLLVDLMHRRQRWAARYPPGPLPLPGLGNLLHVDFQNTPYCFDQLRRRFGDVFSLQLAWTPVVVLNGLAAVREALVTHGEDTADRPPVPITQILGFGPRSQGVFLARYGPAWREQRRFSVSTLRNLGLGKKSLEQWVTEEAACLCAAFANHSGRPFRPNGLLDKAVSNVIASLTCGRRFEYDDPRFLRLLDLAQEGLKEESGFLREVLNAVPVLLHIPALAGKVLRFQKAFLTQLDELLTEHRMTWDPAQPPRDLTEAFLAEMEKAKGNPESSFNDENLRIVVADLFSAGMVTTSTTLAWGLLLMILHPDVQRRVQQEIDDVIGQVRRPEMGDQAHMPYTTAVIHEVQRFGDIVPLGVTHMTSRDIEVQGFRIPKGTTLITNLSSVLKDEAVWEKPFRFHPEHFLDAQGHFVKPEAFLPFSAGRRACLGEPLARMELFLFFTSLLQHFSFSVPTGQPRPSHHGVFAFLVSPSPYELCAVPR

Chain of Paired box protein Pax-8 (Q06710 whole entry, the tested form may be a part): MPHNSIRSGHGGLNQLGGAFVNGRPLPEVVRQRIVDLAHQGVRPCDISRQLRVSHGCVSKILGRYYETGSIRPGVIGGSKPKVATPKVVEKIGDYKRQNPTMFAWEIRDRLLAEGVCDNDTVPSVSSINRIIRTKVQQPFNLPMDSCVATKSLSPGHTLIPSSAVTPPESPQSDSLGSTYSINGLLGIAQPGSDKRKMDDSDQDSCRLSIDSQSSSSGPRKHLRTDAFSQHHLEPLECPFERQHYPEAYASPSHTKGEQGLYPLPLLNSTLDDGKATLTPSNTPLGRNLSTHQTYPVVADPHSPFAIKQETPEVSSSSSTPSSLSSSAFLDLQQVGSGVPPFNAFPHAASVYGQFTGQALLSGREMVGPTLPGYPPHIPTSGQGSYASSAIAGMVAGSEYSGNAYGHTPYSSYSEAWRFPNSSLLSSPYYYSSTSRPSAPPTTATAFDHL
Chain of Long-chain-fatty-acid--AMP ligase FadD28 (P9WQ59 whole entry, the tested form may be a part): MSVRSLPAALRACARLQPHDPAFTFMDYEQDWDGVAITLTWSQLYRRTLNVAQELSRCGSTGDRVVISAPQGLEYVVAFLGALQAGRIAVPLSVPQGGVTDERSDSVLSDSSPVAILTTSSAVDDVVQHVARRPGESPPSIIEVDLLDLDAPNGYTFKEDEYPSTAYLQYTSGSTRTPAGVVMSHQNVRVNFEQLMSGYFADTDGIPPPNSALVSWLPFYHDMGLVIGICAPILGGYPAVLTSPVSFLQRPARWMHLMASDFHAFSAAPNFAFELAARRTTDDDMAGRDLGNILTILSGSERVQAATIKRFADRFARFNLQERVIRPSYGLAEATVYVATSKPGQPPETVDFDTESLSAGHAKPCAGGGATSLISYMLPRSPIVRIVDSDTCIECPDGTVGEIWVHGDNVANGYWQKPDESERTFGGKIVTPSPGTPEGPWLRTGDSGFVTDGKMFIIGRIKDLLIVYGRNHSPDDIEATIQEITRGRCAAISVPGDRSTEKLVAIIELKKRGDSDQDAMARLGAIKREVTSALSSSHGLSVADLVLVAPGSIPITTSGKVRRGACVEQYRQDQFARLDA
Chain of Luciferin 4-monooxygenase (P08659 whole entry): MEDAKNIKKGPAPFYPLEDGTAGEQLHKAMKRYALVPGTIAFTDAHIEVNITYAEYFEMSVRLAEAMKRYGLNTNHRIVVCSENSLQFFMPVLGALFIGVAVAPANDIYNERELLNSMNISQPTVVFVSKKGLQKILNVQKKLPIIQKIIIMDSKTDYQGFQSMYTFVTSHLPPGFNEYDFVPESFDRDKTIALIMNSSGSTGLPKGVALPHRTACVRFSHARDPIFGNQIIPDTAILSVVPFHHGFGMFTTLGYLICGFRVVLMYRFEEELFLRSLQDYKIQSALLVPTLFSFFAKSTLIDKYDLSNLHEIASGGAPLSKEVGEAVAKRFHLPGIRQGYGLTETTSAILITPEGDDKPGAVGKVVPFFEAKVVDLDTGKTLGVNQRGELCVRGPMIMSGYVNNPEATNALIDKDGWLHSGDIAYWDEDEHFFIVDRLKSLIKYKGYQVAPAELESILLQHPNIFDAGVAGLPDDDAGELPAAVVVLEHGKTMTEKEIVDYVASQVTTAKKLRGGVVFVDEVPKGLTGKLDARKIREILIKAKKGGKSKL
Chain of RNA-editing ligase 1, mitochondrial (P86926 whole entry): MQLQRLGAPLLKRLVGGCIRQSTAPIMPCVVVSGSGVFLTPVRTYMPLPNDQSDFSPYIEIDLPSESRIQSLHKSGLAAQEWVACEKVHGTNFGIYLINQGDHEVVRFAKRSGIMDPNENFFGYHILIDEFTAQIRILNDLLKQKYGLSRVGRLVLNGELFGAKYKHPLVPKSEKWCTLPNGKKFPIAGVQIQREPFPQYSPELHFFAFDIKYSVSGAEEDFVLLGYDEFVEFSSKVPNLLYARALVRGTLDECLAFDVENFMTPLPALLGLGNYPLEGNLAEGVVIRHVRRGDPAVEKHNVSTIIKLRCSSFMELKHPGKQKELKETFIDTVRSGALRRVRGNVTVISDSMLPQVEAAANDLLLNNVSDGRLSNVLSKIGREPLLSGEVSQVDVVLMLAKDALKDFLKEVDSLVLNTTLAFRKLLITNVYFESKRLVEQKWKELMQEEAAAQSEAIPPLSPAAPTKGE

C/N=c1\scc(-c2ccccc2F)n1/N=C/c1ccc(O)c(O)c1O
EC50 [1]: 1.68 µM (active)
EC50 [2]: 2.46 µM (active)
IC50 [3]: 25.8 µM (active)
AC50 [4]: 32 µM (inactive)
EC50 [5]: > 67.5 µM (inactive)
EC50 [6]: > 67.5 µM (inactive)

COc1ccccc1C#Cc1ccc([C@H]2[C@H](C#N)N(C(=O)C3CCCC3)[C@H]2CO)cc1
AC50 [7]: 4.38 µM (active)
AC50 [8]: 9.51 µM (active)
AC50 [9]: 21.8 µM (active)
AC50 [10]: 4.17 µM (active)
AC50 [11]: 8.21 µM (active)
AC50 [12]: > 52 µM (inactive)
AC50 [13]: 32.2 µM (active)
AC50 [14]: 9.13 µM (active)
AC50 [15]: 19.8 µM (active)
AC50 [16]: 3.59 µM (active)
AC50 [17]: 10.6 µM (active)
AC50 [18]: > 52 µM (inactive)

C[C@@H]1CN([C@@H](C)CO)C(=O)c2c(c3ccccc3n2C)-c2ccccc2CO[C@@H]1CN(C)S(=O)(=O)c1ccc(C(F)(F)F)cc1
AC50 [7]: 6.8 µM (active)
AC50 [12]: 22.3 µM (active)
AC50 [19]: 21.9 µM (active)
AC50 [13]: 58.4 µM (active)
AC50 [14]: 51.6 µM (active)
AC50 [16]: 54.3 µM (active)
AC50 [18]: 34.5 µM (active)
AC50 [20]: 2.24 µM (active)
AC50 [21]: 20.9 µM (active)
AC50 [22]: 2.57 µM (active)
AC50 [23]: 1.63 µM (active)
AC50 [24]: > 39 µM (inactive)
AC50 [25]: 2.21 µM (active)

COc1ccc(S(=O)(=O)N2CCCCN3[C@H](CO)[C@@H](c4ccc(C#CC(C)C)cc4)[C@H]3C2)cc1
AC50 [7]: 12 µM (active)
AC50 [26]: 27.1 µM (active)
AC50 [11]: 34 µM (active)
AC50 [17]: > 70 µM (inactive)

COC(=O)c1nc(Cl)c(Cl)nc1N
IC50 [27]: 0.334 µM (active)
IC50 [28]: 0.511 µM (active)

COc1ccc(/N=C/C2=C(O)OCC2)cc1
IC50 [29]: > 100 µM (active)

COc1cccc(CN(C)C(=O)[C@H]2O[C@@H](n3cnc4c(=O)[nH]c(N)nc43)[C@H](O)[C@@H]2O)c1
IC50 [30]: > 96.6 µM (inactive)

O=C(C1CCC1)N1C[C@@H]2N[C@H](C1)[C@@H]2c1ccc(-c2ccccc2F)cc1
AC50 [20]: 3.03 µM (active)
AC50 [21]: 19.5 µM (active)
AC50 [22]: 2.24 µM (active)
AC50 [23]: 2.5 µM (active)
AC50 [25]: 3.47 µM (active)

CCCCc1ccc2[nH]c(NC(=O)OC)nc2c1 [PARBENDAZOLE]
IC50 [27]: 0.0104 µM (active)
IC50 [28]: 0.0106 µM (active)
AC50 [31]: 1.58 µM (inconclusive)

Reference: ChEMBL document CHEMBL1201862, “PubChem BioAssay data set” (2004)
